Assay results taken from the NIST ThermoML archive (doi:10.1021/je400184t).
± gives the expanded uncertainty stated by the source.

Experiment: excess molar enthalpy (molar enthalpy of mixing); xn = mol fraction of the nth substance listed
Conditions: 298.15 K, 101 kPa, Liquid, Calvet calorimetry

Cc1ccccc1 [toluene] + CCCCCCC
Conditions	excess molar enthalpy [kJ/mol]
x2 = 0.00901	0.023 ± 0.002
x2 = 0.02172	0.057 ± 0.002
x2 = 0.04198	0.106 ± 0.003
x2 = 0.06142	0.15 ± 0.003
x2 = 0.08009	0.191 ± 0.003
x2 = 0.09803	0.226 ± 0.003
x2 = 0.1153	0.26 ± 0.003
x2 = 0.1319	0.289 ± 0.003
x2 = 0.1479	0.317 ± 0.004
x2 = 0.1633	0.341 ± 0.004
x2 = 0.1782	0.364 ± 0.004
x2 = 0.1925	0.384 ± 0.004
x2 = 0.2064	0.402 ± 0.004
x2 = 0.2198	0.418 ± 0.004
x2 = 0.2327	0.433 ± 0.004
x2 = 0.2452	0.448 ± 0.004
x2 = 0.2574	0.461 ± 0.004
x2 = 0.2691	0.472 ± 0.005
x2 = 0.2805	0.483 ± 0.005
x2 = 0.2915	0.492 ± 0.005
x2 = 0.3022	0.501 ± 0.005
x2 = 0.3125	0.508 ± 0.005
x2 = 0.3226	0.516 ± 0.005
x2 = 0.3324	0.522 ± 0.005
x2 = 0.3419	0.527 ± 0.005
x2 = 0.3511	0.532 ± 0.005
x2 = 0.3601	0.536 ± 0.005
x2 = 0.3688	0.54 ± 0.005
x2 = 0.3773	0.544 ± 0.005
x2 = 0.3856	0.547 ± 0.005
x2 = 0.3883	0.548 ± 0.005
x2 = 0.3909	0.548 ± 0.005
x2 = 0.3935	0.549 ± 0.005
x2 = 0.3961	0.55 ± 0.005
x2 = 0.3987	0.551 ± 0.005
x2 = 0.4012	0.551 ± 0.005
x2 = 0.4038	0.552 ± 0.005
x2 = 0.4063	0.552 ± 0.005
x2 = 0.4088	0.553 ± 0.005
x2 = 0.4112	0.554 ± 0.005
x2 = 0.4137	0.554 ± 0.005
x2 = 0.4161	0.554 ± 0.005
x2 = 0.4185	0.555 ± 0.005
x2 = 0.4209	0.555 ± 0.005
x2 = 0.4232	0.556 ± 0.005
x2 = 0.4256	0.556 ± 0.005
x2 = 0.4279	0.556 ± 0.005
x2 = 0.4302	0.557 ± 0.005
x2 = 0.4325	0.557 ± 0.005
x2 = 0.4348	0.557 ± 0.005
x2 = 0.4382	0.557 ± 0.005
x2 = 0.4415	0.558 ± 0.005
x2 = 0.4449	0.558 ± 0.005
x2 = 0.4481	0.558 ± 0.005
x2 = 0.4514	0.558 ± 0.005
x2 = 0.4546	0.558 ± 0.005
x2 = 0.4578	0.558 ± 0.005
x2 = 0.4609	0.558 ± 0.005
x2 = 0.464	0.558 ± 0.005
x2 = 0.4671	0.558 ± 0.005
x2 = 0.4701	0.557 ± 0.005
x2 = 0.4731	0.557 ± 0.005
x2 = 0.476	0.557 ± 0.005
x2 = 0.479	0.557 ± 0.005
x2 = 0.4819	0.556 ± 0.005
x2 = 0.4847	0.556 ± 0.005
x2 = 0.4875	0.556 ± 0.005
x2 = 0.4903	0.555 ± 0.005
x2 = 0.4931	0.555 ± 0.005
x2 = 0.4959	0.554 ± 0.005
x2 = 0.4995	0.553 ± 0.005
x2 = 0.503	0.553 ± 0.005
x2 = 0.5066	0.552 ± 0.005
x2 = 0.51	0.552 ± 0.005
x2 = 0.5134	0.551 ± 0.005
x2 = 0.5168	0.55 ± 0.005
x2 = 0.5202	0.549 ± 0.005
x2 = 0.5234	0.548 ± 0.005
x2 = 0.5267	0.547 ± 0.005
x2 = 0.5299	0.546 ± 0.005
x2 = 0.533	0.545 ± 0.005
x2 = 0.5361	0.544 ± 0.005
x2 = 0.5392	0.543 ± 0.005
x2 = 0.5422	0.542 ± 0.005
x2 = 0.5452	0.541 ± 0.005
x2 = 0.5482	0.54 ± 0.005
x2 = 0.5511	0.539 ± 0.005
x2 = 0.5539	0.538 ± 0.005
x2 = 0.5568	0.537 ± 0.005
x2 = 0.5589	0.536 ± 0.005
x2 = 0.5609	0.535 ± 0.005
x2 = 0.563	0.534 ± 0.005
x2 = 0.565	0.533 ± 0.005
x2 = 0.5671	0.532 ± 0.005
x2 = 0.5691	0.531 ± 0.005
x2 = 0.571	0.53 ± 0.005
x2 = 0.573	0.529 ± 0.005
x2 = 0.5749	0.528 ± 0.005
x2 = 0.5769	0.527 ± 0.005
x2 = 0.5788	0.527 ± 0.005
x2 = 0.5807	0.526 ± 0.005
x2 = 0.5826	0.525 ± 0.005
x2 = 0.5844	0.524 ± 0.005
x2 = 0.5863	0.523 ± 0.005
x2 = 0.5881	0.522 ± 0.005
x2 = 0.5899	0.521 ± 0.005
x2 = 0.5917	0.52 ± 0.005
x2 = 0.5935	0.519 ± 0.005
x2 = 0.5952	0.518 ± 0.005
x2 = 0.597	0.517 ± 0.005
x2 = 0.5987	0.516 ± 0.005
x2 = 0.6004	0.515 ± 0.005
x2 = 0.6021	0.514 ± 0.005
x2 = 0.6038	0.513 ± 0.005
x2 = 0.6055	0.512 ± 0.005
x2 = 0.6071	0.511 ± 0.005
x2 = 0.6088	0.51 ± 0.005
x2 = 0.6148	0.507 ± 0.005
x2 = 0.6209	0.502 ± 0.005
x2 = 0.6271	0.498 ± 0.005
x2 = 0.6335	0.493 ± 0.005
x2 = 0.64	0.488 ± 0.005
x2 = 0.6466	0.484 ± 0.005
x2 = 0.6534	0.478 ± 0.005
x2 = 0.6603	0.473 ± 0.005
x2 = 0.6673	0.467 ± 0.005
x2 = 0.6745	0.461 ± 0.004
x2 = 0.6819	0.454 ± 0.004
x2 = 0.6894	0.447 ± 0.004
x2 = 0.6971	0.44 ± 0.004
x2 = 0.705	0.433 ± 0.004
x2 = 0.713	0.424 ± 0.004
x2 = 0.7212	0.416 ± 0.004
x2 = 0.7297	0.408 ± 0.004
x2 = 0.7383	0.398 ± 0.004
x2 = 0.7471	0.388 ± 0.004
x2 = 0.7562	0.378 ± 0.004
x2 = 0.7623	0.371 ± 0.004
x2 = 0.7685	0.364 ± 0.004
x2 = 0.7748	0.356 ± 0.004
x2 = 0.7812	0.348 ± 0.004
x2 = 0.7877	0.34 ± 0.004
x2 = 0.7943	0.33 ± 0.004
x2 = 0.801	0.322 ± 0.004
x2 = 0.8079	0.312 ± 0.004
x2 = 0.8148	0.303 ± 0.004
x2 = 0.8219	0.294 ± 0.003
x2 = 0.8291	0.284 ± 0.003
x2 = 0.8365	0.274 ± 0.003
x2 = 0.8439	0.263 ± 0.003
x2 = 0.8515	0.252 ± 0.003
x2 = 0.8592	0.24 ± 0.003
x2 = 0.8671	0.228 ± 0.003
x2 = 0.8752	0.216 ± 0.003
x2 = 0.8833	0.203 ± 0.003
x2 = 0.8917	0.189 ± 0.003
x2 = 0.9002	0.175 ± 0.003
x2 = 0.9088	0.161 ± 0.003
x2 = 0.9176	0.147 ± 0.003
x2 = 0.9266	0.132 ± 0.003
x2 = 0.9358	0.116 ± 0.003
x2 = 0.9434	0.103 ± 0.003
x2 = 0.9511	0.09 ± 0.002
x2 = 0.9589	0.077 ± 0.002
x2 = 0.9668	0.063 ± 0.002
x2 = 0.9749	0.048 ± 0.002
x2 = 0.9831	0.033 ± 0.002
x2 = 0.9915	0.016 ± 0.002
